Source: US7074789B2, “Kinase inhibitors” (Amgen Inc., priority 1999, dated 2006)

What was measured:
Assay type in all cases: biochemical
c-Met = biological target: T1, c-Met (Homo sapiens, UniProt P08581); assay: Kinase inhibition assay (33P transfer), c-Met; details: Table 2, kinase inhibition class; read-out: Met-1
T1 construct: Kinases are expressed as either kinase domains or full length constructs; made in house
Procedure, shortened: (§1)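 Read-out: scintillation counts of 33P moved from ATP onto synthetic peptide polymer coated on the well surface, after washing with 0.5% phosphoric acid. Enzymes were tagged (GST or polyHistidine) and came from bacterial or insect-cell expression. IC50 marks 50% loss of incorporated label.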

Kdr = biological target: T2, Kdr (Homo sapiens, UniProt P35968); assay: Kinase inhibition assay (33P transfer), Kdr; details: Table 3; read-out: KDR-1
T2 construct: Kinases are expressed as either kinase domains or full length constructs; made in house
Procedure, shortened: (§2)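 Liquid scintillation counting of 33P on plate-bound synthetic substrates gives kinase activity. Plates are washed in 0.5% phosphoric acid first; kinases are tagged recombinant proteins from E. coli or baculovirus-infected High Five cells.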

IGFR-1 = biological target: T3, IGFR-1 (Homo sapiens, UniProt P08069); assay: Kinase inhibition assay (33P transfer), IGFR-1; details: Table 2, kinase inhibition class
T3 construct: Kinases are expressed as either kinase domains or full length constructs; made in house

AKT = biological target: T4, AKT (Homo sapiens, UniProt Q9Y243); assay: Kinase inhibition assay (33P transfer), AKT; details: Table 2, kinase inhibition class; read-out: AKT3-1
T4 construct: Kinases are expressed as either kinase domains or full length constructs; made in house
Procedure, shortened: as §2

EGFR = biological target: T5, EGFR (Homo sapiens, UniProt P00533); assay: Kinase inhibition assay (33P transfer), EGFR; details: Table 2, kinase inhibition class; read-out: EGFR-1
T5 construct: Kinases are expressed as either kinase domains or full length constructs; made in house
Procedure, shortened: as §1

Zap-70 = biological target: T6, Zap-70 (Homo sapiens, UniProt P43403); assay: Kinase inhibition assay (33P transfer), Zap-70; details: Table 3; read-out: Zap-1
T6 construct: Kinases are expressed as either kinase domains or full length constructs; made in house
T6 sequence (P43403 1-619): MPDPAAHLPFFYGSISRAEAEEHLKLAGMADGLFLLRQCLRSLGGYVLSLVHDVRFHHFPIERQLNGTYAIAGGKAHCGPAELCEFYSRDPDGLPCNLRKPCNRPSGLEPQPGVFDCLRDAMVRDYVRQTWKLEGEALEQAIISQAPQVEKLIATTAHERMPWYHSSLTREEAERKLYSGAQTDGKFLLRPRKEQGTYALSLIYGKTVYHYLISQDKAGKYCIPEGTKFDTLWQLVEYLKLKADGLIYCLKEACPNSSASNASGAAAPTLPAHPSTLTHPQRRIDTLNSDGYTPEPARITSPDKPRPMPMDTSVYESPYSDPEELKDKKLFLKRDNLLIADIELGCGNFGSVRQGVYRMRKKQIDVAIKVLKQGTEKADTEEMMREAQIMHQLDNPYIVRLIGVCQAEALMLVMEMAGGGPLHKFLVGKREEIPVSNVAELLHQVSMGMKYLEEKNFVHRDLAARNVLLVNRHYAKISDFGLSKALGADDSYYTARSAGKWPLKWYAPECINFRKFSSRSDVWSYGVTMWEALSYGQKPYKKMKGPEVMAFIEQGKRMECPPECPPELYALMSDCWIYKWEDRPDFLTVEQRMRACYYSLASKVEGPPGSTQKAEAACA
Procedure, shortened: as §2

Itk = biological target: T7, Itk (Homo sapiens, UniProt Q08881); assay: Kinase inhibition assay (33P transfer), Itk; details: Table 3; read-out: Itk-1
T7 construct: Kinases are expressed as either kinase domains or full length constructs; made in house
T7 sequence (Q08881 1-620): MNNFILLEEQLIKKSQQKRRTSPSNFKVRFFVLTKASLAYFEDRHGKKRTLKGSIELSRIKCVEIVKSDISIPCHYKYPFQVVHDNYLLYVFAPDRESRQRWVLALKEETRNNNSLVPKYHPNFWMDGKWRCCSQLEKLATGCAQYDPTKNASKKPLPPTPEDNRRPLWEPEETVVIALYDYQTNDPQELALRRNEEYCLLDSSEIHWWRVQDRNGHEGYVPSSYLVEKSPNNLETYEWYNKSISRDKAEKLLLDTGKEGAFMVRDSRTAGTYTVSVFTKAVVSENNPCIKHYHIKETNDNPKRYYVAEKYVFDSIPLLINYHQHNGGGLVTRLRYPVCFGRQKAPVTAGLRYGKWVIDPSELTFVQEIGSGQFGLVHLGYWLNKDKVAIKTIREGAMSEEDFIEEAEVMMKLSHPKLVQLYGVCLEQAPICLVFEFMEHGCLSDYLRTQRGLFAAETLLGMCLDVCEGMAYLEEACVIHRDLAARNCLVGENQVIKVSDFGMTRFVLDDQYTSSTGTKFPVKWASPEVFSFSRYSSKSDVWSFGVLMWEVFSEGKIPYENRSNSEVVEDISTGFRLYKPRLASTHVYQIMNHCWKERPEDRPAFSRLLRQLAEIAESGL
Procedure, shortened: as §1

Lck = biological target: T8, Lck (Homo sapiens, UniProt P06239); assay: Kinase inhibition assay (33P transfer), Lck; details: Table 3; read-out: Lck-1
T8 construct: Kinases are expressed as either kinase domains or full length constructs; made in house
Procedure, shortened: as §2

T2 sequence (P35968 20-1356, species assumed): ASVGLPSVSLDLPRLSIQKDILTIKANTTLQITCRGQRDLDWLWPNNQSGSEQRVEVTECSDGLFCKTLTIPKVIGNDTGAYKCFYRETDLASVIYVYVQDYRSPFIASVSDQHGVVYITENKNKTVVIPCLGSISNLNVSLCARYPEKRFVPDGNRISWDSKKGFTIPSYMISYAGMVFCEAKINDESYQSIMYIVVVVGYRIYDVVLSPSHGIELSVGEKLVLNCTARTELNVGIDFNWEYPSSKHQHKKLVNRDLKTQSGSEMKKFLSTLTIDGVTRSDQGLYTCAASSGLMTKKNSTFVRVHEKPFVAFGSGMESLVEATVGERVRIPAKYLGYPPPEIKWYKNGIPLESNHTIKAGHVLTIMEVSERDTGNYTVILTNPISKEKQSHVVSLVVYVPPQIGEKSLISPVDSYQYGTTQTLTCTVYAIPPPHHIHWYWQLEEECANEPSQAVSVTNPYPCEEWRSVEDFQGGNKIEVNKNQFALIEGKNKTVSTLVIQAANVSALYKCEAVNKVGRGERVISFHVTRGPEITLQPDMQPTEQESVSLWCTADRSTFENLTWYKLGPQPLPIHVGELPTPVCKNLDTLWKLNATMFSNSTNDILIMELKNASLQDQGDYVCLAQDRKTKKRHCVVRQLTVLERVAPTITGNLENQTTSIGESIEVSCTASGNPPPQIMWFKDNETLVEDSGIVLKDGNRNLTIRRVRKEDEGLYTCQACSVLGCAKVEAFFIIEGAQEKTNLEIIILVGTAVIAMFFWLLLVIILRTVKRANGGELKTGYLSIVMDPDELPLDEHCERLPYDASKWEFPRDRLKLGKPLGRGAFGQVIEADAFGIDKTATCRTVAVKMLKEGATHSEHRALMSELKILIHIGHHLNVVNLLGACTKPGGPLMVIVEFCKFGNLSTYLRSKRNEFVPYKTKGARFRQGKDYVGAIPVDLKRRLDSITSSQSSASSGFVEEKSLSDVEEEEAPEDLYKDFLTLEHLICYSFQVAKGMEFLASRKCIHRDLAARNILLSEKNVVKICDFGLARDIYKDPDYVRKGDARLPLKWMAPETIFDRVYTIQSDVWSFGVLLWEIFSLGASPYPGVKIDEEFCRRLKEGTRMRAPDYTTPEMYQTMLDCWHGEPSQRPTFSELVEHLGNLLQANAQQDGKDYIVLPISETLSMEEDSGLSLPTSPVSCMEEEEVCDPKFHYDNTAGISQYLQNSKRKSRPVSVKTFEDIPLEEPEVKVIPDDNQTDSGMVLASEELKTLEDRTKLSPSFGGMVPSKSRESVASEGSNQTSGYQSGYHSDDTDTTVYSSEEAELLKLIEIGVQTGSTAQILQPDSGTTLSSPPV
T1 sequence (P08581 25-1390): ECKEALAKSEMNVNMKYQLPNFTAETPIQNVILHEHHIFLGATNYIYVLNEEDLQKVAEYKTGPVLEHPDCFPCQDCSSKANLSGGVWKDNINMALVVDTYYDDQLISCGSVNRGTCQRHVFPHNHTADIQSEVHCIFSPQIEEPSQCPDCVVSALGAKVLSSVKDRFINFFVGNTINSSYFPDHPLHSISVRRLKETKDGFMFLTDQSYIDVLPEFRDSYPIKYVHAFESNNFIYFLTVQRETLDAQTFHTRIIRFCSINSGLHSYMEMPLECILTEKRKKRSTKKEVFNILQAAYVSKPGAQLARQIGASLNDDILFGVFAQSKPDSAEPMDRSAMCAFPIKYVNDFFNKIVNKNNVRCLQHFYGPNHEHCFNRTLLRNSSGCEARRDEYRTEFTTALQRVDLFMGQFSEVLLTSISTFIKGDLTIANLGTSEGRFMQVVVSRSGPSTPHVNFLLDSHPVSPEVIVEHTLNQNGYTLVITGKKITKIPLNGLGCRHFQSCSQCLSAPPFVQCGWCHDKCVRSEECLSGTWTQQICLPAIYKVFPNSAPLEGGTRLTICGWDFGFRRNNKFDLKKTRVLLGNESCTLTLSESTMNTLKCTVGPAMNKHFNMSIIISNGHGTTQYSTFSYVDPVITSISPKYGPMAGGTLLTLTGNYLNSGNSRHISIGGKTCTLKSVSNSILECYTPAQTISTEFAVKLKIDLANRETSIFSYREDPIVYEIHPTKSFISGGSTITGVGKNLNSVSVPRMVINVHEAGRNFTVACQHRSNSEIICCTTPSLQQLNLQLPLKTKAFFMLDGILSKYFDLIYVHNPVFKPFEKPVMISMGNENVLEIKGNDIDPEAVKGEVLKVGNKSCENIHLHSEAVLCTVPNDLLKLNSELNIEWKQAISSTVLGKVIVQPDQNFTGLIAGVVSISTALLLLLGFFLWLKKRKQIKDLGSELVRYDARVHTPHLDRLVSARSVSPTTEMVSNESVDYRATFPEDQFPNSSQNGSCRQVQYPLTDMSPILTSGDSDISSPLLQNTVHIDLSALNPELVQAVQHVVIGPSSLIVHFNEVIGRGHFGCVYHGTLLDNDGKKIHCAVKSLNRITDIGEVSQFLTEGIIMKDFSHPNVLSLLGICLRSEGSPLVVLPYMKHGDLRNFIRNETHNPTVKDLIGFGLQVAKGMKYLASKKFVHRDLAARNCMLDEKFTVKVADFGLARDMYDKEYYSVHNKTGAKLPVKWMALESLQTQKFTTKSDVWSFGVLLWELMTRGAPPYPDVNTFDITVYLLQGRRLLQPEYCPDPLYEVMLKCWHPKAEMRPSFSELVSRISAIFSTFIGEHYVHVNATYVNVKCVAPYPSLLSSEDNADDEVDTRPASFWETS
T8 sequence (P06239 whole entry, species assumed, the tested form may be a part): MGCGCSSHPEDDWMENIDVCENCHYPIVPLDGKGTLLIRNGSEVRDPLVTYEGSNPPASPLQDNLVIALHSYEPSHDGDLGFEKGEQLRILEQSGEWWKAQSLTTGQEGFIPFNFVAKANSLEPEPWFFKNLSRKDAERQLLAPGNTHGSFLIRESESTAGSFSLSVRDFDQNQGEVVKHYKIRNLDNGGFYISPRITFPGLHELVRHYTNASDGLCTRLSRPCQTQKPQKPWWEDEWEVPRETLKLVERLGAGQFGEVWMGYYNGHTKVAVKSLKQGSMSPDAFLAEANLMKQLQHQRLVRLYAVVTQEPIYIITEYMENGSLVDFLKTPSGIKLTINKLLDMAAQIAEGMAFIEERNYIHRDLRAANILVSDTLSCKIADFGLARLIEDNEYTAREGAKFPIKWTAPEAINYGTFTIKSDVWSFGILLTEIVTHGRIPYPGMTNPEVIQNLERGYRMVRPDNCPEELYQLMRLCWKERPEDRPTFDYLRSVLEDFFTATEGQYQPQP
T3 sequence (P08069 31-1367): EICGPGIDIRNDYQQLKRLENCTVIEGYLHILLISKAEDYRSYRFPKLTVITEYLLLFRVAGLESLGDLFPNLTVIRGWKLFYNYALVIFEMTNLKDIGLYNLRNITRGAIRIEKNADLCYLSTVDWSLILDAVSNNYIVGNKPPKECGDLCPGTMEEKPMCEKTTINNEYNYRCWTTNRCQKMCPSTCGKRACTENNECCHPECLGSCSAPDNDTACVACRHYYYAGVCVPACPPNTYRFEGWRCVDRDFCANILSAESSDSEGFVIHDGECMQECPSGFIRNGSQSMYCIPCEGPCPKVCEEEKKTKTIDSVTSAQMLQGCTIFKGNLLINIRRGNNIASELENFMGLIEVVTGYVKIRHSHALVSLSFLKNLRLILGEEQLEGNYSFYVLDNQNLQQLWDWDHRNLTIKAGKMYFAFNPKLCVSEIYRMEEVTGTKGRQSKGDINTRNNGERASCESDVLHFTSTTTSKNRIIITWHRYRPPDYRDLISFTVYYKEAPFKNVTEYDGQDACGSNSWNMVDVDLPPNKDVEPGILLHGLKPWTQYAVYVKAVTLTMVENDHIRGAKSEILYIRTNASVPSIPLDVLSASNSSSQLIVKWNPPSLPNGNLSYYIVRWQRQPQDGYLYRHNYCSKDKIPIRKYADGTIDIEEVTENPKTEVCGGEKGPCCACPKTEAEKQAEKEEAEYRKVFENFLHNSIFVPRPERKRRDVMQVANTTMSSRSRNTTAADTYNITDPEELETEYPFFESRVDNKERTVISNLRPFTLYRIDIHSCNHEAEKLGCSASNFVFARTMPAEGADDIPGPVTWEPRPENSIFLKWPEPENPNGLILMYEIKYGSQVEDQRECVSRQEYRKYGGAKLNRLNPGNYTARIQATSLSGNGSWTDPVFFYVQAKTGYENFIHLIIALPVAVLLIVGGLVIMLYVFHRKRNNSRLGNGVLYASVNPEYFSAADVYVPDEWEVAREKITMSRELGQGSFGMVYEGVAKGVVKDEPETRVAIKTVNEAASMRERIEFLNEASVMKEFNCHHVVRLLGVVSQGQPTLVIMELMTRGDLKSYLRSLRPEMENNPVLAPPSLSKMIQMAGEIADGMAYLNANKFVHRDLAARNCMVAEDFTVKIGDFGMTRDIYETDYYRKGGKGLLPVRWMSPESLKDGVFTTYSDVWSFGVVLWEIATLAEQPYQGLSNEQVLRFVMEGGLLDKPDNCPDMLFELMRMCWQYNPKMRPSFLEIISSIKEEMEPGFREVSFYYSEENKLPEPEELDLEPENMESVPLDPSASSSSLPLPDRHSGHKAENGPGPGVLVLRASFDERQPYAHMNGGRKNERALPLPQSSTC
T4 sequence (Q9Y243 whole entry, the tested form may be a part): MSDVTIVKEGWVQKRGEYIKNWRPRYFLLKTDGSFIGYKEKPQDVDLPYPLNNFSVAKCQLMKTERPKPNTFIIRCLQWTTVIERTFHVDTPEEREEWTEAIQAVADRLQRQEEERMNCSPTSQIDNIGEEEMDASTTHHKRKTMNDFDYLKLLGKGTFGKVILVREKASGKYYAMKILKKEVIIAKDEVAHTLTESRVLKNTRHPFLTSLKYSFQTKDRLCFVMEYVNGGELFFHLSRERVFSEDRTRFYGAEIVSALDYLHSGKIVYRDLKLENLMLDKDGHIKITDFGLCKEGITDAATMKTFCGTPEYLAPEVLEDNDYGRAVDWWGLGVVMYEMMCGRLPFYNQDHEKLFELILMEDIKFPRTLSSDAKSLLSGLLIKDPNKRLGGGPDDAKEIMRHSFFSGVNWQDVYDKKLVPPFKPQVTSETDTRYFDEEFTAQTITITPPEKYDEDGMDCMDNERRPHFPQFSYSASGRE

Compound	IC50 (c-Met) [µM]	IC50 (Kdr) [µM]	IC50 (IGFR-1) [µM]	IC50 (AKT) [µM]	IC50 (EGFR) [µM]	IC50 (Zap-70) [µM]	IC50 (Itk) [µM]	IC50 (Lck) [µM]
FC(F)C(F)(F)Oc1cccc(Nc2ncnc(-c3cccs3)n2)c1 [Compound 350]	> 12.2	> 12.2	> 12.2	> 12.2	> 12.2	> 12.2	> 12.2	> 12.2
Clc1ncnc(Nc2ccc(OCc3ccccc3)cc2)n1 [Compound 153]	> 14.4	11.2 to 14.4	> 14.4	> 14.4	> 14.4	> 14.4	> 14.4	> 14.4
COc1cc(Nc2ncnc(N3CCN(C(=O)OC(C)(C)C)CC3)n2)cc(OC)c1OC [Compound 211]	> 10.1	5.38 to 7.84	> 10.1	> 10.1	> 10.1	> 10.1	> 10.1	> 10.1
NC(=O)c1cccc(Nc2ncnc(-c3cccs3)n2)c1 [Compound 358]	> 15.1	> 15.1	> 15.1	> 15.1	> 15.1	> 15.1	> 15.1	> 15.1
COc1cc(Nc2ncnc(-c3ccnc(N4CCCCC4)c3)n2)cc(OC)c1OC [Compound 345]	0.947 to 5.68	< 0.947	0.947 to 5.68	> 10.7	> 10.7	> 10.7	> 10.7	0.947 to 5.68
COc1cccc(NC(=O)Nc2ncnc(Nc3cc(OC)c(OC)c(OC)c3)n2)c1 [Compound 21]	8.21 to 10.6	0.938 to 5.63	0.938 to 5.63	> 10.6	> 10.6	8.21 to 10.6	> 10.6	0.938 to 5.63
COc1cc(Nc2ncnc(Cl)n2)cc(OC)c1OC [Compound 924, 2-chloro-4-(3′,4′,5′-trimethoxyanilino)-1,3,5-triazine]	> 15.2	1.35 to 8.09	> 15.2	> 15.2	> 15.2	> 15.2	> 15.2	> 15.2
COc1cc(Nc2ncnc(N3CCc4ccccc4C3)n2)cc(OC)c1OC [Compound 326]	> 11.4	> 11.4	> 11.4	> 11.4	> 11.4	> 11.4	> 11.4	> 11.4
COc1cc(Nc2ncnc(-n3ccc4cccnc43)n2)cc(OC)c1OC [Compound 327]	> 11.9	> 11.9	6.34 to 9.25	> 11.9	> 11.9	> 11.9	1.06 to 6.34	1.06 to 6.34
COc1cc(Nc2ncnc(N3CCN(c4ncccn4)CC3)n2)cc(OC)c1OC [Compound 214]	5.65 to 8.25	0.942 to 5.65	> 10.6	> 10.6	> 10.6	> 10.6	> 10.6	> 10.6
COc1cc(Nc2ncnc(-n3cc(OC(C)=O)c4ccccc43)n2)cc(OC)c1OC [Compound 205]	> 10.3	5.51 to 8.04	> 10.3	> 10.3	> 10.3	> 10.3	> 10.3	> 10.3
COC(=O)c1ccc(Nc2ncnc(-c3ccccc3)n2)cc1 [Compound 163]	> 14.7	> 14.7	> 14.7	> 14.7	> 14.7	> 14.7	> 14.7	> 14.7
Nc1nc2ccccc2n1-c1ncnc(Cl)n1 [Compound 1029]	> 18.2	14.2 to 18.2	> 18.2	> 18.2	> 18.2	9.73 to 14.2	> 18.2	> 18.2
FC(F)C(F)(F)Oc1cccc(Nc2ncnc(-c3ccnc(N4CCCCC4)c3)n2)c1 [Compound 346]	> 10	0.892 to 5.35	> 10	> 10	> 10	> 10	> 10	> 10
COc1cc(Nc2ncnc(-c3ccnc(Cl)c3)n2)cc(OC)c1OC [Compound 331]	> 12	> 12	> 12	> 12	> 12	> 12	> 12	> 12
COc1cc(Nc2ncnc(Nc3ncncn3)n2)cc(OC)c1OC [Compound 254]	> 12.6	> 12.6	> 12.6	> 12.6	> 12.6	> 12.6	> 12.6	> 12.6
Clc1cccc(Nc2ncnc(-c3cccs3)n2)c1 [Compound 360]	> 15.6	> 15.6	> 15.6	> 15.6	> 15.6	> 15.6	> 15.6	> 15.6
COc1cc(C)c(Nc2ncnc(-c3cccs3)n2)cc1OC [Compound 359]	> 13.7	> 13.7	> 13.7	> 13.7	> 13.7	> 13.7	> 13.7	> 13.7
NC(=O)c1ccc(Nc2ncnc(-c3cccs3)n2)cc1 [Compound 354]	> 15.1	> 15.1	> 15.1	> 15.1	> 15.1	> 15.1	> 15.1	> 15.1
COc1cc(Nc2ncnc(N3CCN(c4ccccn4)CC3)n2)cc(OC)c1OC [Compound 213]	> 10.6	0.945 to 5.67	> 10.6	> 10.6	> 10.6	> 10.6	> 10.6	> 10.6
c1csc(-c2ncnc(Nc3ccc4c(c3)OCO4)n2)c1 [Compound 1072]	11.7 to 15.1	8.04 to 11.7	> 15.1	> 15.1	> 15.1	> 15.1	> 15.1	> 15.1
OCc1ccc(Nc2ncnc(-c3ccccc3)n2)cc1 [Compound 165]	> 16.2	> 16.2	> 16.2	> 16.2	> 16.2	> 16.2	> 16.2	> 16.2
OCCCNc1ncnc(-c2ccccc2)n1 [Compound 971]	> 19.5	> 19.5	> 19.5	> 19.5	> 19.5	> 19.5	> 19.5	> 19.5
COc1ccc2c(c1)c(CCN(C)C)cn2-c1ncnc(Nc2cc(OC)c(OC)c(OC)c2)n1 [Compound 333]	> 9.4	> 9.4	> 9.4	> 9.4	> 9.4	> 9.4	> 9.4	> 9.4
COc1cc(Nc2ncnc(-n3ccnc3)n2)cc(OC)c1OC [Compound 183]	> 13.7	7.31 to 10.7	> 13.7	> 13.7	> 13.7	> 13.7	> 13.7	> 13.7
